Experiment [1] concerns human umbilical vein endothelial cells (HUVEC). Briefly: HUVEC proliferation assay. The settings on record: Homo sapiens, HUVEC, Table 1. The format is cell-based. A digest of the protocol: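 Exponentially growing HUVEC were serum-starved 24 h (F12K + 1% FBS), pre-treated 1 h with compound (0.1% DMSO final), then stimulated with 6 ng/ml VEGF. Proliferation was read 72 h later by MTT reduction (A595). IC50 came from seven 0.5-log concentrations in triplicate; screens gave % inhibition relative to VEGF-only and starved wells.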

Experiment [2] has as its system lung cancer cells (line MV522). In words: Cancer cell proliferation (MV522) assay. The settings on record: MV522, Table 1. It is filed as cell-based. Here is the method:
Cancer Cell Proliferation (MV522) Assay
The protocol for assessing cellular proliferation in cancer cells is similar to that used for assessments in HUVEC cells. Two thousand lung cancer cells (line MV522, acquired from American Tissue Cultural Collection) were seeded in growth media (RPMI1640 medium supplemented with 2 mM glutamine and 10% FBS). Cells are allowed to attach for 1 day prior to addition of test agents and/or vehicles. Cells are treated simultaneously with the same test agents used in the HUVEC assay. Cellular proliferation is quantified by MTT dye reduction assay 72 hours after exposure to test agents. The total length of the assay is 4 days vs. 5 for HUVEC cells because MV522 cells are not exposed to starvation medium.

Experiment [3] has as its target T1, phosphorylated VEGF-R2Δ50 (FLVK-P) (Homo sapiens, UniProt P35968, DEL940-989/E990V).
T1 construct: VEGF-R2Δ50 contains residues 806-939 and 990-1171; made in house; host or cells: baculovirus/insect cells
Briefly: VEGF-R2 coupled spectrophotometric (FLVK-P) assay. The format is biochemical. To be noted: for Ki: Table 1, spectrophotometric assay. A digest of the protocol: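 Baculovirus-expressed human VEGF-R2Δ50 (residues 806-939/990-1171, E990V) was autophosphorylated with 3 mM ATP, 40 mM MgCl2 for 2 h at 4° C. ADP formation was coupled via PK/LDH to NADH oxidation, read at 340 nm, with 5.1 mM poly(E4Y1), 1 mM ATP, 25 mM MgCl2, Hepes pH 7.5. Ki came from activity across compound concentrations.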

Experiment [4] deals with T2, unphosphorylated VEGF-R2Δ50 (FLVK) (Homo sapiens, UniProt P35968, DEL940-989/E990V).
T2 construct: VEGF-R2Δ50 contains residues 806-939 and 990-1171; made in house; host or cells: baculovirus/insect cells
T2 sequence (P35968 with tags, fused parts or gaps DEL940-989/E990V limits assumed): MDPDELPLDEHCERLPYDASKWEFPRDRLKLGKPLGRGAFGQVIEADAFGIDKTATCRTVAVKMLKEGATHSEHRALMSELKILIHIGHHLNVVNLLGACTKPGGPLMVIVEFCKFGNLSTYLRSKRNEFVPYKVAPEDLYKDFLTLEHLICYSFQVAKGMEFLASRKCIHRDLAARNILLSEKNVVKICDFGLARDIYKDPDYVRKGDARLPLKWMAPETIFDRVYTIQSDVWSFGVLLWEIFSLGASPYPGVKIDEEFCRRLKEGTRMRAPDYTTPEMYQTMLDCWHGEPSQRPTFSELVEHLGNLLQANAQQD
Briefly: VEGF-R2 coupled spectrophotometric assay, unphosphorylated enzyme (FLVK). It is filed as biochemical. A digest of the protocol:
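Unphosphorylated VEGF-R2Δ50 (5 to 40 nM) with 20 mM poly(E4Y1), 3 mM ATP, 60 mM MgCl2, 2 mM MnCl2 in 200 mM Hepes pH 7.5. ADP production coupled via PK/LDH to NADH oxidation, read at 340 nm. Ki from activity at varying compound concentrations.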

A value given as a limit tells only on which side of the number the result lay.

T1 sequence (P35968 with tags, fused parts or gaps DEL940-989/E990V limits assumed): as above

In the case of `COc1cc(Nc2nc(N)c(-c3nc(-c4cccc(NC(=O)c5cccc(Br)c5)c4)cs3)s2)cc(OC)c1OC` [D(29), N-{3-[4′-Amino-2′-(3,4,5-trimethoxy-phenylamino)-[2,5′]bithiazolyl-4-yl]-phenyl}-3-bromo-benzamide], the values for the IC50 in experiment [1] and in experiment [2] were 32 nM and more than 10000 nM, respectively. Also, the affinity in experiment [3], expressed as Ki, was 1.4 nM.
Regarding `CC(=O)Nc1nc(N)c(-c2nc(-c3cccc(NC(=O)c4ccc(Cl)s4)c3)cs2)s1` [F(2), N-[3-(2′-Acetylamino-4′-amino-[2,5′]bithiazolyl-4-yl)-phenyl]-5-chloro-thiophene-2-carboxamide], the inhibition constant (Ki) (commonly a dissociation constant, usually derived from enzyme kinetics or from competition with a known ligand) in experiment [4] (Table 1) is 4.71 nM; in experiment [3] it was 3.9 nM. Further, in experiment [1], 86 nM corresponded to half-maximal inhibition (IC50).
Regarding `COc1cc(Nc2nc(N)c(-c3nc(-c4cccc(NC(=O)c5cccc(Cl)c5)c4)no3)s2)cc(OC)c1OC` [D(50), 3-[3-(3-Chlorobenzamido)phenyl]-5-[2-[(3,4,5-trimethoxyphenyl)amino]-4-amino-5-thiazolyl]-1,2,4-oxadiazole], the figures for the IC50 in experiment [1] and in experiment [2] were 17 nM and more than 10000 nM, respectively. The compound also returned an inhibitory constant (Ki) in experiment [3] of 1.4 nM.
For `COc1cccc(C(=O)Nc2cccc(-c3noc(-c4sc(Nc5cc(OC)c(OC)c(OC)c5)nc4N)n3)c2)c1` [D(48), 3-[3-(3-Methoxybenzamido)phenyl]-5-[2-[(3,4,5-trimethoxyphenyl)amino]-4-amino-5-thiazolyl]-1,2,4-oxadiazole] the same measures were 40 nM, more than 10000 nM and 4.1 nM.
On to `COc1cc(Nc2nc(N)c(-c3nc(-c4cccc(NC(=O)OC(C)(C)C)c4)no3)s2)cc(OC)c1OC` [B(2), 3-(3-tert-Butyloxycarboxy-aminophenyl)-5-[2-[(3,4,5-trimethoxyphenyl)amino]-4-amino-5-thiazolyl]-1,2,4-oxadiazole], for which the half-inhibitory concentration (IC50) – broadly, the concentration that inhibits the measured activity by half – in experiment [1] was more than 700 nM; in experiment [2], 3650 nM. In experiment [3], this compound returned an inhibition constant Ki of 16.5 nM.
Take `COc1cc(Nc2nc(N)c(-c3nc(-c4cccc(NC(C)=O)c4)no3)s2)cc(OC)c1OC` [D(45), 3-[3-Acetamidophenyl]-5-[2-[(3,4,5-trimethoxyphenyl)amino]-4-amino-5-thiazolyl]-1,2,4-oxadiazole]: the 50% inhibitory concentration (IC50) in experiment [1] was determined as 235 nM; in experiment [2], 650 nM.
On to `Nc1nc(Nc2ccc(S(N)(=O)=O)cc2)sc1-c1nc(-c2cccc(NC(=O)OCc3ccccc3)c2)cs1` [D(25), {3-[4′-Amino-2′-(4-sulfamoyl-phenylamino)-[2,5′]bithiazolyl-4-yl]-phenyl}-carbamic acid benzyl ester], for which the IC50 in experiment [1] was 745 nM; in experiment [2] it was more than 10000 nM. In addition, the affinity in experiment [3] corresponds to a Ki of 1 nM.
The like results for `COc1cccc(C(=O)Nc2cccc(-c3csc(-c4sc(Nc5cc(OC)c(OC)c(OC)c5)nc4N)n3)c2)c1` [D(41), N-{3-[4′-Amino-2′-(3,4,5-trimethoxy-phenylamino)-[2,5′]bithiazolyl-4-yl]-phenyl}-3-methoxy-benzamide] were, in that order, 37 nM, more than 10000 nM and 1.9 nM.
In experiment [4] (Table 3, some entries 'Slow binder'), `CC[C@H](CO)NC(=O)Nc1nc(N)c(-c2nc(-c3cc(NC(=O)c4cccc(OC)c4)c(F)cc3F)cs2)s1` [O(21), N-(5-{4′-Amino-2′-[3-((R)-1-hydroxymethyl-propyl)-ureido]-[2,5′]bithiazolyl-4-yl}-2,4-difluoro-phenyl)-3-methoxy-benzamide] showed an inhibition constant (Ki) of 1.1 nM. Also, testing at 0.05 µM in experiment [3] (Table 3, at 50 nM) gave an inhibition of 61%.
Turning to `COc1cc(Nc2nc(N)c(-c3nc(-c4cccc(NC(=O)OC(C)(C)C)c4)cs3)s2)cc(OC)c1OC` [D(43), {3-[4′-Amino-2′-(3,4,5-trimethoxy-phenylamino)-[2,5′]bithiazolyl-4-yl]-phenyl}-carbamic acid tert-butyl ester], the figures for the IC50 in experiment [1] and in experiment [2] were 241 nM and more than 10000 nM, respectively. In experiment [3], this compound displayed an inhibition constant (Ki) of 2.9 nM.
The like results for `COc1cc(Nc2nc(N)c(-c3nc(-c4cccc(NC(=O)c5ccc(C)s5)c4)cs3)s2)cc(OC)c1OC` [D(34), 5-Methyl-thiophene-2-carboxylic acid {3-[4′-amino-2′-(3,4,5-trimethoxy-phenylamino)-[2,5′]bithiazolyl-4-yl]-phenyl}-amide] were, in that order, 89 nM, 9000 nM and 0.85 nM.
Take `COc1cc(Nc2nc(N)c(-c3nc(-c4cccc(NC(=O)c5ccc(Cl)c(C)c5)c4)cs3)s2)cc(OC)c1OC` [D(30), N-{3-[4′-Amino-2′-(3,4,5-trimethoxy-phenylamino)-[2,5′]bithiazolyl-4-yl]-phenyl}-4-chloro-3-methyl-benzamide]: the IC50 in experiment [1] is 48 nM; in experiment [2] it was more than 10000 nM. Besides, the affinity in experiment [3] corresponds to a Ki of 2.9 nM.
The like results for `COc1cc(Nc2nc(N)c(-c3nc(-c4cccc(NC(=O)O[C@H](C)c5ccccc5)c4)cs3)s2)cc(OC)c1OC` [D(23), {3-[4′-Amino-2′-(3,4,5-trimethoxy-phenylamino)-[2,5′]bithiazolyl-4-yl]-phenyl}-carbamic acid 1-R-phenyl-ethyl ester] were, in that order, 130 nM, more than 10000 nM and 150 nM.
On to `Nc1nc(Nc2ccccc2)sc1-c1nc(-c2cccc(NC(=O)OCc3ccccc3)c2)cs1` [D(20), [3-(4′-Amino-2′-phenylamino-[2,5′]bithiazolyl-4-yl)-phenyl]-carbamic acid benzyl ester], for which the half-inhibitory concentration (IC50) in experiment [1] was 990 nM; in experiment [2], more than 10000 nM. Besides, the Ki in experiment [3] was 3.7 nM.
For the compound `COc1cc(Nc2nc(N)c(-c3nc(-c4cccc(NC(=O)c5ccc(Br)s5)c4)cs3)s2)cc(OC)c1OC` [D(36), 5-Bromo-thiophene-2-carboxylic acid {3-[4′-amino-2′-(3,4,5-trimethoxy-phenylamino)-[2,5′]bithiazolyl-4-yl]-phenyl}-amide], the results for the IC50 in experiment [1] and in experiment [2] were 43 nM and more than 10000 nM, respectively. For the same compound, in experiment [3], the affinity corresponds to a Ki of 2 nM.
On to `CNC(=O)Nc1nc(N)c(-c2nc(-c3cccc(NC(=O)c4ccc(Cl)s4)c3)cs2)s1` [F(1), 5-Chloro-thiophene-2-carboxylic acid {3-[4′-amino-2′-(3-methyl-ureido)-[2,5′]bithiazolyl-4-yl]-phenyl}-amide], for which the results for the Ki in experiment [4] (Table 1) and in experiment [3] were 1.4 nM and 0.91 nM, respectively. Also, the midpoint of inhibition in experiment [1], the IC50, lay at 29 nM.
With `COc1cc(Nc2nc(N)c(-c3nc(-c4cccc(NC(=O)c5ccccc5)c4)no3)s2)cc(OC)c1OC` [D(46), 3-[3-Benzamidophenyl]-5-[2-[(3,4,5-trimethoxyphenyl)amino]-4-amino-5-thiazolyl]-1,2,4-oxadiazole], the values for the IC50 in experiment [1] and in experiment [2] were 123 nM and more than 10000 nM, respectively. The compound further came in with a Ki in experiment [3] of 17.1 nM.
As for `CCc1cccc(C(=O)Nc2cccc(-c3csc(-c4sc(Nc5cc(OC)c(OC)c(OC)c5)nc4N)n3)c2)c1` [D(39), N-{3-[4′-Amino-2′-(3,4,5-trimethoxy-phenylamino)-[2,5′]bithiazolyl-4-yl]-phenyl}-3-ethyl-benzamide], the results for the IC50 in experiment [1] and in experiment [2] were 62 nM and more than 10000 nM, respectively. Moreover, the affinity in experiment [3], expressed as Ki, was 1.4 nM.
The like results for `COc1cc(Nc2nc(N)c(-c3nc(-c4cccc(NC(=O)c5cccc(C)c5)c4)cs3)s2)cc(OC)c1OC` [D(38), N-{3-[4′-Amino-2′-(3,4,5-trimethoxy-phenylamino)-[2,5′]bithiazolyl-4-yl]-phenyl}-3-methyl-benzamide] were, in that order, 40 nM, more than 10000 nM and 0.93 nM.

The values above are taken from patent US6620828B2, “Thiazole compounds and pharmaceutical compositions for inhibiting protein kinases and methods for their use” (Agouron Pharmaceuticals, Inc., priority 1999, dated 2003).
